{
  "source": "patent US8895756B2",
  "about": "“Bendamustine pharmaceutical compositions” (priority 2005, dated 2014)",
  "test": "HPLC stability of bendamustine (15 mg/mL, mannitol 25.5 mg/mL) in alcohol/water solutions at 5° C.",
  "type": "physicochemical",
  "conditions": "for Dimer (%) / HP1 (%) / Purity (% Area): 5° C.",
  "description": "A sample of each formulation was analyzed by HPLC after 0, 3, 6 and 24 hours when stored at 5° C.",
  "key": {"[1]": {"conditions": "30% Butanol (2 layers, vortexed), 0 hours"}, "[2]": {"conditions": "30% Butanol (2 layers, vortexed), 3 hours"}, "[3]": {"conditions": "30% Butanol (2 layers, vortexed), 6 hours"}, "[4]": {"conditions": "30% Butanol (2 layers, vortexed), 24 hours"}},
  "data": [
    {"smiles": "Cl.Cn1c(CCCC(=O)O)nc2cc(N(CCCl)CCCl)ccc21", "note": "[bendamustine, 4-{5-[Bis(2-chloroethyl)amino]-1-methyl-2-benzimidazolyl}butyric acid]", "values": [
      {"measurement": "Dimer (%)", "setting": "20% n-Propanol, 24 hours", "result": 0.24, "unit": "%"},
      {"measurement": "HP1 (%)", "setting": "20% n-Propanol, 24 hours", "result": 0.97, "unit": "%"},
      {"measurement": "Purity (% Area)", "setting": "20% n-Propanol, 24 hours", "result": 98.60, "unit": "% Area"},
      {"measurement": "HP1", "setting": "30% (v/v) TBA, stored at 5° C. for up to 24 hours", "result": "about 0.4%"},
      {"measurement": "Dimer (%)", "setting": "[1]", "result": 0.10, "unit": "%"},
      {"measurement": "HP1 (%)", "setting": "[1]", "result": 0.24, "unit": "%"},
      {"measurement": "Purity (% Area)", "setting": "[1]", "result": 99.55, "unit": "% Area"},
      {"measurement": "Dimer (%)", "setting": "[2]", "result": 0.10, "unit": "%"},
      {"measurement": "HP1 (%)", "setting": "[2]", "result": 0.29, "unit": "%"},
      {"measurement": "Purity (% Area)", "setting": "[2]", "result": 99.40, "unit": "% Area"},
      {"measurement": "Dimer (%)", "setting": "[3]", "result": 0.11, "unit": "%"},
      {"measurement": "HP1 (%)", "setting": "[3]", "result": 0.37, "unit": "%"},
      {"measurement": "Dimer (%)", "setting": "[4]", "result": 0.12, "unit": "%"},
      {"measurement": "HP1 (%)", "setting": "[4]", "result": 0.74, "unit": "%"},
      {"measurement": "Dimer (%)", "setting": "30% Ethanol, 0 hours", "result": 0.10, "unit": "%"},
      {"measurement": "HP1 (%)", "setting": "30% Ethanol, 0 hours", "result": 0.15, "unit": "%"},
      {"measurement": "Purity (% Area)", "setting": "30% Ethanol, 0 hours", "result": 99.62, "unit": "% Area"},
      {"measurement": "Dimer (%)", "setting": "30% Ethanol, 3 hours", "result": 0.11, "unit": "%"},
      {"measurement": "HP1 (%)", "setting": "30% Ethanol, 3 hours", "result": 0.21, "unit": "%"},
      {"measurement": "Purity (% Area)", "setting": "30% Ethanol, 3 hours", "result": 99.56, "unit": "% Area"},
      {"measurement": "Dimer (%)", "setting": "30% Ethanol, 6 hours", "result": 0.12, "unit": "%"},
      {"measurement": "HP1 (%)", "setting": "30% Ethanol, 6 hours", "result": 0.24, "unit": "%"},
      {"measurement": "Purity (% Area)", "setting": "30% Ethanol, 6 hours", "result": 99.52, "unit": "% Area"},
      {"measurement": "Dimer (%)", "setting": "30% Ethanol, 24 hours", "result": 0.12, "unit": "%"},
      {"measurement": "HP1 (%)", "setting": "30% Ethanol, 24 hours", "result": 0.45, "unit": "%"},
      {"measurement": "Purity (% Area)", "setting": "30% Ethanol, 24 hours", "result": 99.21, "unit": "% Area"},
      {"measurement": "Dimer (%)", "setting": "30% Iso-propanol, 0 hours", "result": 0.10, "unit": "%"},
      {"measurement": "HP1 (%)", "setting": "30% Iso-propanol, 0 hours", "result": 0.15, "unit": "%"},
      {"measurement": "Purity (% Area)", "setting": "30% Iso-propanol, 0 hours", "result": 99.56, "unit": "% Area"},
      {"measurement": "Dimer (%)", "setting": "30% Iso-propanol, 3 hours", "result": 0.12, "unit": "%"},
      {"measurement": "HP1 (%)", "setting": "30% Iso-propanol, 3 hours", "result": 0.20, "unit": "%"},
      {"measurement": "Purity (% Area)", "setting": "30% Iso-propanol, 3 hours", "result": 99.47, "unit": "% Area"},
      {"measurement": "Dimer (%)", "setting": "30% Iso-propanol, 6 hours", "result": 0.11, "unit": "%"},
      {"measurement": "HP1 (%)", "setting": "30% Iso-propanol, 6 hours", "result": 0.24, "unit": "%"},
      {"measurement": "Purity (% Area)", "setting": "30% Iso-propanol, 6 hours", "result": 99.40, "unit": "% Area"},
      {"measurement": "Dimer (%)", "setting": "30% Iso-propanol, 24 hours", "result": 0.14, "unit": "%"},
      {"measurement": "HP1 (%)", "setting": "30% Iso-propanol, 24 hours", "result": 0.52, "unit": "%"},
      {"measurement": "Purity (% Area)", "setting": "30% Iso-propanol, 24 hours", "result": 99.15, "unit": "% Area"},
      {"measurement": "Dimer (%)", "setting": "30% Methanol, 0 hours", "result": 0.10, "unit": "%"},
      {"measurement": "HP1 (%)", "setting": "30% Methanol, 0 hours", "result": 0.18, "unit": "%"},
      {"measurement": "Purity (% Area)", "setting": "30% Methanol, 0 hours", "result": 99.59, "unit": "% Area"},
      {"measurement": "Dimer (%)", "setting": "30% Methanol, 3 hours", "result": 0.11, "unit": "%"},
      {"measurement": "HP1 (%)", "setting": "30% Methanol, 3 hours", "result": 0.27, "unit": "%"},
      {"measurement": "Purity (% Area)", "setting": "30% Methanol, 3 hours", "result": 99.43, "unit": "% Area"},
      {"measurement": "Dimer (%)", "setting": "30% Methanol, 6 hours", "result": 0.11, "unit": "%"},
      {"measurement": "HP1 (%)", "setting": "30% Methanol, 6 hours", "result": 0.34, "unit": "%"},
      {"measurement": "Purity (% Area)", "setting": "30% Methanol, 6 hours", "result": 99.25, "unit": "% Area"},
      {"measurement": "Dimer (%)", "setting": "30% Methanol, 24 hours", "result": 0.13, "unit": "%"},
      {"measurement": "HP1 (%)", "setting": "30% Methanol, 24 hours", "result": 0.76, "unit": "%"},
      {"measurement": "Purity (% Area)", "setting": "30% Methanol, 24 hours", "result": 98.65, "unit": "% Area"},
      {"measurement": "Dimer (%)", "setting": "30% Tert-butanol, 0 hours", "result": 0.10, "unit": "%"},
      {"measurement": "HP1 (%)", "setting": "30% Tert-butanol, 0 hours", "result": 0.13, "unit": "%"},
      {"measurement": "Purity (% Area)", "setting": "30% Tert-butanol, 0 hours", "result": 99.63, "unit": "% Area"},
      {"measurement": "Dimer (%)", "setting": "30% Tert-butanol, 3 hours", "result": 0.10, "unit": "%"},
      {"measurement": "HP1 (%)", "setting": "30% Tert-butanol, 3 hours", "result": 0.16, "unit": "%"},
      {"measurement": "Purity (% Area)", "setting": "30% Tert-butanol, 3 hours", "result": 99.60, "unit": "% Area"},
      {"measurement": "Dimer (%)", "setting": "30% Tert-butanol, 6 hours", "result": 0.11, "unit": "%"},
      {"measurement": "HP1 (%)", "setting": "30% Tert-butanol, 6 hours", "result": 0.18, "unit": "%"},
      {"measurement": "Purity (% Area)", "setting": "30% Tert-butanol, 6 hours", "result": 99.58, "unit": "% Area"},
      {"measurement": "Dimer (%)", "setting": "30% Tert-butanol, 24 hours", "result": 0.12, "unit": "%"},
      {"measurement": "HP1 (%)", "setting": "30% Tert-butanol, 24 hours", "result": 0.34, "unit": "%"},
      {"measurement": "Purity (% Area)", "setting": "30% Tert-butanol, 24 hours", "result": 99.42, "unit": "% Area"},
      {"measurement": "Dimer (%)", "setting": "30% n-Propanol, 0 hours", "result": 0.13, "unit": "%"},
      {"measurement": "HP1 (%)", "setting": "30% n-Propanol, 0 hours", "result": 0.15, "unit": "%"},
      {"measurement": "Purity (% Area)", "setting": "30% n-Propanol, 0 hours", "result": 99.53, "unit": "% Area"},
      {"measurement": "Dimer (%)", "setting": "30% n-Propanol, 3 hours", "result": 0.15, "unit": "%"},
      {"measurement": "HP1 (%)", "setting": "30% n-Propanol, 3 hours", "result": 0.15, "unit": "%"},
      {"measurement": "Purity (% Area)", "setting": "30% n-Propanol, 3 hours", "result": 99.51, "unit": "% Area"},
      {"measurement": "Dimer (%)", "setting": "30% n-Propanol, 6 hours", "result": 0.11, "unit": "%"},
      {"measurement": "HP1 (%)", "setting": "30% n-Propanol, 6 hours", "result": 0.20, "unit": "%"},
      {"measurement": "Purity (% Area)", "setting": "30% n-Propanol, 6 hours", "result": 99.44, "unit": "% Area"},
      {"measurement": "Dimer (%)", "setting": "30% n-Propanol, 24 hours", "result": 0.17, "unit": "%"},
      {"measurement": "HP1 (%)", "setting": "30% n-Propanol, 24 hours", "result": 0.36, "unit": "%"},
      {"measurement": "Purity (% Area)", "setting": "30% n-Propanol, 24 hours", "result": 99.27, "unit": "% Area"}
    ]}
  ]
}
